Literature values in US20260204362A1, “METHOD FOR DETERMINING A TARGET […] COMPOUND COMPRISING A TARGET BIODEGRADABILITY” (BASF SE, priority 2022, published 2026).

Conditions: known values for test molecules from the NITE database; OECD 301 (A-F) test setups, measurement uncertainty ca. 10%
For `BrCCCCBr` [BrCCCCBr], the “Biodegradability (data) in %” value is given as 17%. In the case of `CCC(CC)C(=O)OCCOCCOCCOC(=O)C(CC)CC` [CCC(CC)C(═O)OCCOCCOCCOC(═O)C(CC)CC], the “Biodegradability (data) in %” value is listed as 81%. In the case of `CCCCN(CCCC)C(=S)[S][Ni][S]C(=S)N(CCCC)CCCC` [CCCCN(CCCC)C(═S)S[Ni]SC(═S)N(CCCC)CCCC], the “Biodegradability (data) in %” value is listed as 3%. For `CNCCS(=O)(=O)O` [CNCCS(═O)(═O)O], the “Biodegradability (data) in %” value is listed as 62%. For `OCC=CCO` [OCC═CCO], the “Biodegradability (data) in %” value is given as 57%.
